Results on one compound are retold here after EP4678172A1, “USE OF NAPHTHYLAMIDE COMPOUND IN TREATMENT OF MENINGIOMA” (Shanghai Runshi Medical Technology Co., Ltd, priority 2023, dated 2024).

Each structure is given as a SMILES string.

Assay [1] relates to meningioma cells IOMM-Lee. The assay is described as follows: EdU cell proliferation assay. It counts as cell-based, human. As to conditions: 1 µM, 24 h, versus blank control group. The method, then:
The IOMM-Lee single cell suspension in the logarithmic growth phase obtained in Example 1 was seeded in a 6-well plate at a cell density of 3 × 10^5 cells/mL, cultured overnight, and grouped into a blank control group and a compound (I) treatment group (concentration: 1 µM; treatment duration: 24 h). Subsequently, each group was incubated with EdU (10 µM) for 2 h; the culture medium was discarded; and the cells were washed with PBS (in this experiment, PBS was used in the washing process). The cells were fixed with 4% paraformaldehyde; the stationary liquid was discarded; and the cells were washed. After that, the cells were permeabilized with 0.3% Triton X100; the permeabilization liquid was discarded; and the cells were washed. Then, a prepared click reaction solution (commercially available C0081 BeyoClick™ EdU Cell Proliferation Kit with Alexa Fluor 647) was added; the mixture was incubated in the dark at room temperature for 30 min; the reaction solution was discarded; and the cells were washed. The cell nuclei were stained with Hoechst 33342 fluorescent dye by adding 1× Hoechst 33342 solution at 1 mL/well, followed by incubated in the dark at room temperature for 10 min; 1× Hoechst 33342 solution was removed by pipetting; and the cells were washed 3 times. Subsequently, a fluorescence assay was performed, and the results were recorded.

In assay [2] the test system is CH157-MN. As to the kind of experiment: Cell scratch assay (migration). In kind it is cell-based, human. The settings on record: CH157-MN, 2, 5, 10 µM, 24 h, versus blank control; dose-dependent. The procedure: (§1) • (1) The IOMM-Lee single cell suspension in the logarithmic growth phase was seeded in a 6-well plate at a cell density of 6 × 10^5 cells/mL and cultured for 24 h to ensure the full covering of the entire cell culture dish by the growing cells. A cell scratch was made by a 10 µL sterile pipette tip perpendicular to the culture dish; the original culture solution was discarded; and the detached cells were pipetted by washing with PBS 3 times. The cells were cultured using a serum-free DMEM culture medium and grouped into a blank control group and compound (I) treatment groups at different concentrations, where the compound (I) treatment groups had concentrations of 0.5 µM, 1 µM, and 2 µM, respectively. The cells were observed under the bright field of a microscope and recorded at 0 h and 24 h. • (2) With reference to the experimental method (1), the concentrations in the compound (I) treatment groups were replaced by 2 µM, 5 µM, and 10 µM, respectively, and the used human meningioma cell line was IOMM-Lee or CH157-MN.

Assay [3] concerns IOMM-Lee. As to the kind of experiment: Cell scratch assay (migration). In kind it is cell-based, human. As to conditions: IOMM-Lee, 0.5, 1, 2 µM and 2, 5, 10 µM, 24 h, versus blank control; dose-dependent. The method, then:
as §1

In assay [4] the test system is Human meningioma cell line IOMM-Lee cells. As to the kind of experiment: Trypan blue viable cell counting, cell viability. As to conditions: 24 h. In kind it is cell-based. The procedure: Human meningioma cell line IOMM-Lee cells (purchased from ATCC) were cultured using a DMED culture medium containing 10% FBS and 100 U/mL penicillin-streptomycin double antibiotics in an incubator with 5% CO2 at 37 °C. The cells in the logarithmic growth phase were seeded uniformly in a 6-well plate at a density of 2 × 10^5 cells/mL and cultured for 24 h, and then the cells were grouped into a blank control group and compound (I) treatment groups at different concentrations. The compound (I) treatment concentrations were 0.4 µM, 0.8 µM, 1.6 µM, 2 µM, 10 µM, 20 µM, 60 µM, and 120 µM, and 3-4 replicate wells were set for each group. After cells in the groups were separately cultured for 24 h, the cells were digested with 0.25% trypsin, and 50 µL of each cell suspension was mixed with 50 µL of 0.4% trypan blue solution to a final trypan blue concentration of 0.2%. Subsequently, 10 µL of the uniform cell suspension was added to a counting plate and counted under a microscope for the total cell count and dead cell count. Statistical analysis was performed.

The subject of assay [5] is CH157-MN. As to the kind of experiment: Apoptosis by annexin V-FITC/PI flow cytometry. In kind it is cell-based, human. As to conditions: CH157-MN, 2, 5, 10 µM, 24 h, versus blank control. The procedure: (§2) • (1) The IOMM-Lee single cell suspension in the logarithmic growth phase was seeded in a 6-well plate at a cell density of 5 × 10^5 cells/mL, cultured overnight, and grouped into a blank control group and compound (I) treatment groups at different concentrations, with concentrations of compound (I) being 1 µM, 5 µM, and 10 µM, respectively, and 3-4 replicate wells were set. After the addition of compound (I) at different concentrations for the treatment for 24 h, (1-10) × 10^5 cells were collected from the blank control group and each compound (I) treatment group, washed with PBS, and centrifuged. The cells were resuspended in 500 µL of 1× binding buffer. 5 µL of annexin V-FITC and 10 µL of PI were added to each tube. After gently and homogeneously mixing by vortex, the cells were incubated in the dark at room temperature for 5 min and then subjected to flow cytometry. • (2) With reference to the experimental method (1), the concentrations in the compound (I) treatment groups were replaced by 2 µM, 5 µM, and 10 µM, respectively, and the used human meningioma cell line was IOMM-Lee or CH157-MN.

Assay [6] has as its system IOMM-Lee. As to the kind of experiment: Apoptosis by annexin V-FITC/PI flow cytometry. It counts as cell-based, human. The settings on record: IOMM-Lee, 1, 5, 10 µM and 2, 5, 10 µM, 24 h, versus blank control. The method, then: as §2

By viability is commonly meant a per cent measure of how many cells are alive, often set against a control. Low values mean a greater loss of cells, high ones better survival.

`Cc1cc(NC(=O)c2cccc3cc(-c4cccc5[nH]nc(N)c45)ccc23)ccc1F` [compound (I)]: the “EdU-labeled (proliferating) cells” value in assay [1] is listed as “significantly fewer than those in the blank control group”. Also, the cell scratch healing entry in the assay with CH157-MN [2] and in the assay on IOMM-Lee [3] was “significantly weaker cell scratch healing than that of the blank control group” each time. Further, the viability at 0.4 µM in assay [4] (compound (I) 0.4 µM) amounted to 71.8 ± 4.06%. In addition, the viability at 0.8 µM in assay [4] (compound (I) 0.8 µM) was 56.8 ± 5.19%. In assay [4] (compound (I) 1.6 µM), the viability at 1.6 µM was 48.3 ± 10.5%. The viability at 2 µM in assay [4] (compound (I) 2 µM) was determined as 45.3 ± 1.91%. Further, the viability at 10 µM in assay [4] (compound (I) 10 µM) amounted to 35 ± 3.93%. For the same compound, the viability at 20 µM in assay [4] (compound (I) 20 µM) stood at 22.6 ± 2.72%. The same compound gave a viability at 60 µM in assay [4] (compound (I) 60 µM) of 19.3 ± 0.52%. In assay [4] (compound (I) 80 µM), this compound gave a viability at 80 µM of 6.33 ± 1.71%. The compound further registered a viability at 120 µM in assay [4] (compound (I) 120 µM) of 0%. Moreover, the late apoptosis result in the assay with CH157-MN [5] and with IOMM-Lee [6] was “significantly increased” throughout. Moreover, the “total cell apoptosis ratio” value in the assay with CH157-MN [5] (with increasing concentration) and with IOMM-Lee [6] (with increasing concentration) was “increased” each time.
